Assay results reported in US20210214375A1 (LUNDBECK LA JOLLA RESEARCH CENTER, INC., priority 2017, published 2021).
Read-outs that look alike come from different tables or passages of the source.

Key:
MAGL [1] = molecular target: T1, MAGL (Homo sapiens, UniProt Q99685); assay: In vitro competitive activity-based protein profiling (gel-based, FP-Rh or HT-01 probe); type: biochemical
T1 construct: Proteomes (human prefrontal cortex or cell membrane fractions); from tissue
T1 sequence (Q99685 1-303): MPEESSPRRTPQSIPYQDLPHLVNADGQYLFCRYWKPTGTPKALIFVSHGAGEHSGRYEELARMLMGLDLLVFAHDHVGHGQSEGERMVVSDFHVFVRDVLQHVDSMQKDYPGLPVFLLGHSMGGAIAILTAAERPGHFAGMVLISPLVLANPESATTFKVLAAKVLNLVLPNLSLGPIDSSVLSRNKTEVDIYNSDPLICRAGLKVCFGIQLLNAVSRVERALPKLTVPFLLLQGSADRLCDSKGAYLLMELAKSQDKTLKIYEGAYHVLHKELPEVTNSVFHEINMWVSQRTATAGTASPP
How it was run: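 Readout is SDS-PAGE of probe-labelled proteome after FP-Rh or HT-01 (1.0 μL, 50 μM stock) labelling for 30 min at room temperature. Beforehand, inhibitors at varying concentrations were preincubated 30 min at 37° C with human prefrontal cortex or cell membrane fractions at 1.0 mg/mL total protein.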

MAGL [2] = molecular target: T2, MAGL (Mus musculus, UniProt O35678); assay: Mouse brain proteomes from inhibitor treated mice (oral gavage, brain proteomes analyzed 4 h after administration); type: in vivo, mouse (C57Bl/6J); settings: brain proteome 4 h after administration, read-out: % Inh 5 mg/kg MGLL (Mouse)
T2 construct: from tissue; host or cells: brain of wild-type C57Bl/6J mice
T2 sequence (O35678 1-303): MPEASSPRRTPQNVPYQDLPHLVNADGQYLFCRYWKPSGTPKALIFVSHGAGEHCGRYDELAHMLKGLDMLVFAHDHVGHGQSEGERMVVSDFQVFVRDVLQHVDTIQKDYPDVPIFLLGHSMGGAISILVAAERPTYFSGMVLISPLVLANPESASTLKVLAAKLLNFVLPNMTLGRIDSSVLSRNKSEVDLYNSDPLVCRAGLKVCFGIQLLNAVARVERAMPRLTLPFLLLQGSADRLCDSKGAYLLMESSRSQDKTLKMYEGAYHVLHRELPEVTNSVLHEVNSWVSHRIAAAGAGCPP
How it was run: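 Wild-type C57Bl/6J mice dosed orally in polyethylene glycol vehicle; brains removed 4 h post-dose and brain proteomes prepared and analysed for MAGL and serine hydrolase activity by previously established methods.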

MGLL = molecular target: T3, MGLL (Mus musculus, UniProt O35678); assay: In vitro competitive activity-based protein profiling, mouse brain proteome; type: biochemical
T3 construct: Brain; from tissue; host or cells: mouse brain proteome
T3 sequence (O35678 1-303): T2 sequence (O35678 1-303)
Protocol: [Worded in the source for another species; this species is reported under the same test.] (§1) Proteomes (human prefrontal cortex or cell membrane fractions) (50 μL, 1.0 mg/mL total protein concentration) were preincubated with varying concentrations of inhibitors at 37° C. After 30 min, FP—Rh or HT-01 (1.0 μL, 50 μM in DMSO) was added and the mixture was incubated for another 30 min at room temperature. Reactions were quenched with SDS loading buffer (15 μL-4×) and run on SDS-PAGE.

ABHD6 = molecular target: T4, ABHD6 (Mus musculus, UniProt Q8R2Y0); assay: In vitro competitive activity-based protein profiling, mouse brain proteome, ABHD6; type: biochemical; settings: mouse
T4 construct: Brain; from tissue; host or cells: mouse brain proteome
T4 sequence (Q8R2Y0 1-336): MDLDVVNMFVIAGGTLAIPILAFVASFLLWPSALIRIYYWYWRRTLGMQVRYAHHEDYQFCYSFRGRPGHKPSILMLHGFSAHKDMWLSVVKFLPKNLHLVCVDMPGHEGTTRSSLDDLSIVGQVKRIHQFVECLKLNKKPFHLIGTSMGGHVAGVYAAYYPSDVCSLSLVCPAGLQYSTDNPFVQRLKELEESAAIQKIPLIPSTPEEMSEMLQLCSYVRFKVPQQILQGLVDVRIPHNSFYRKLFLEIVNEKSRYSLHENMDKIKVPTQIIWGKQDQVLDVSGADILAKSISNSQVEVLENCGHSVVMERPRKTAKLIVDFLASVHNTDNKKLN
Protocol: [Worded in the source for another target; this target is reported under the same test.] as §1

[3] = PC3 proteome, read-out: IC50 MGLL PC3 (Human)
[4] = PFC (prefrontal cortex) proteome, read-out: IC50 MGLL PFC (Human)

Row | Structure (SMILES) | IC50 (MAGL [1]; [3]) [nM] | % Inh MGLL PFC (Human, μM) (MAGL [1]; PFC (prefrontal cortex) proteome) | IC50 (MAGL [1]; [4]) [nM] | inhibition at 5 mg/kg (MAGL [2]) [%] | IC50 (MGLL) [nM] | IC50 (ABHD6) [nM]
1 | O=C(O)CN1CCN(c2cc(C(F)(F)F)ccc2CN2CCCC23CCN(C(=O)OC(C(F)(F)F)C(F)(F)F)CC3)CC1 [Example 3, 2-(4-(2-((8-(((1,1,1,3,3,3-Hexafluoropropan-2-yl)oxy)carbonyl)-1,8-diazaspiro[4.5]decan-1-yl)methyl)-5-(trifluoromethyl)phenyl)piperazin-1-yl)acetic acid] | < 100 | ### (### is ≥ 75%) | < 100 | ≤ 25 | < 100 | > 1000
2 | CC(=O)N1CC2(CCN(c3ccccc3CN3CCN(C(=O)OC(C(F)(F)F)C(F)(F)F)CC3)C2)C1 [Example 168, 1,1,1,3,3,3-Hexafluoropropan-2-yl 4-(2-(2-acetyl-2,6-diazaspiro[3.4]oetan-6-yl)benzyl)piperazine-1-carboxylate] | < 100 |  |  | ≥ 75 | < 100 | > 1000
3 | CC(=O)N1CC2(CCN(c3cc(C(F)(F)F)ccc3CN3CCN(C(=O)OC(C(F)(F)F)C(F)(F)F)CC3)CC2)C1 [Example 216, 1,1,1,3,3,3-Hexafluoropropan-2-yl 4-(2-(2-acetyl-2,7-diazaspiro[3.5]nonan-7-yl)-4-(trifluoromethyl)benzyl)piperazine-1-carboxylate] | < 100 |  |  | ≥ 75 | < 100 | > 1000
4 | O=C(O)C1CCN(c2cc(CN3CC4(CCN(C(=O)OC(C(F)(F)F)C(F)(F)F)CC4)C3)cc(C(F)(F)F)c2)CC1 [Example 99, 1-(3-((7-(((1,1,1,3,3,3-Hexafluoropropan-2-yl)oxy)carbonyl)-2,7-diazaspiro[3.5]nonan-2-yl)methyl)-5-(trifluoromethyl)phenyl)piperidine-4-carboxylic acid] | < 100 |  | < 100 | 25 to 75 | < 100 | 100 to 1000
5 | CS(=O)(=O)N1CC2(CCN(c3cc(C(F)(F)F)ccc3CN3CCN(C(=O)OC(C(F)(F)F)C(F)(F)F)CC3)C2)C1 [Example 186, 1,1,1,3,3,3-Hexafluoropropan-2-yl 4-(2-(2-(methylsulfonyl)-2,6-diazaspiro[3.4]octan-6-yl)-4-(trifluoromethyl)benzyl)piperazine-1-carboxylate] | < 100 |  |  | ≥ 75 | < 100 | > 1000
6 | CS(=O)(=O)N1CCC2(CCN(c3cc(C(F)(F)F)ccc3CN3CCN(C(=O)OC(C(F)(F)F)C(F)(F)F)CC3)CC2)C1 [Example 185, 1,1,1,3,3,3-Hexafluoropropan-2-yl 4-(2-(2-(methylsulfonyl)-2,8-diazaspiro[4.5]decan-8-yl)-4-- (trifluoromethyl)benzyl)piperazine-1-carboxylate] | < 100 |  | < 100 | ≥ 75 | < 100 | > 1000
7 | O=C(O)C1CN(c2cc(C(F)(F)F)ccc2CN2CC3(CCN(C(=O)OC(C(F)(F)F)C(F)(F)F)CC3)C2)CCO1 (stereo not shown) [Example 20, 4-(2-((7-(((1,1,1,3,3,3-Hexafluoropropan-2-yl)oxy)carbonyl)-2,7-diazaspiro[3.5]nonan-2-yl)methyl)-5-(trifluoromethyl)phenyl)morpholine-2-carboxylic acid] | < 100 |  | < 100 | ≥ 75 | < 100 | > 1000
8 | CN(Cc1ccc(C(F)(F)F)cc1N1CCOC(C(=O)O)C1)C1(C)CCN(C(=O)OC(C(F)(F)F)C(F)(F)F)CC1 (stereo not shown) [Example 108, 4-(2-(((1-(((1,1,1,3,3,3-Hexafluoropropan-2-yl)oxy)carbonyl)-4-methylpiperidin-4-yl)(methyl)amino)methyl)-5-(trifluoromethyl)phenyl)morpholine-2-carboxylic acid] | < 100 |  |  | ≤ 25 | < 100 | 100 to 1000
9 | CS(=O)(=O)N1CCC2(CCN(c3cc(Cl)ccc3CN3CCN(C(=O)OC(C(F)(F)F)C(F)(F)F)CC3)CC2)C1 [Example 174, 1,1,1,3,3,3-Hexafluoropropan-4-(4-chloro-2-(2-(methylsulfonyl)-2,8-diazaspiro[4.5]decan-8-yl)benzyl)piperazine-1-carboxylate] | < 100 |  |  | ≥ 75 | < 100 | > 1000
10 | CC(=O)N1CC2(CCN(c3cc(C(F)(F)F)ccc3CN3CCN(C(=O)OC(C(F)(F)F)C(F)(F)F)CC3)C2)C1 [Example 180, 1,1,1,3,3,3-Hexafluoropropan-2-yl 4-(2-(2-acetyl-2,6-diazaspiro[3.4]octan-6-yl)-4-(trifluoromethyl)benzyl)piperazine-1-carboxylate] | < 100 |  |  | ≥ 75 | < 100 | > 1000
11 | O=C(OC(C(F)(F)F)C(F)(F)F)N1CCC2(CCCN2Cc2cc(C(F)(F)F)cc(C3(C(=O)O)CCCC3)c2)CC1 [Example 8, 1-(3-((8-(((1,1,1,3,3,3-Hexafluoropropan-2-yl)oxy)carbonyl)-1,8-diazaspiro[4.5]decan-1-yl)methyl)-5-(trifluoromethyl)phenyl)cyclopentane-1-carboxylic acid] | < 100 |  | < 100 | ≥ 75 | < 100 | > 1000
12 | CC(=O)N1CCC2(CCN(c3cc(C(F)(F)F)ccc3CN3CCN(C(=O)OC(C(F)(F)F)C(F)(F)F)CC3)CC2)C1 [Example 189, 1,1,1,3,3,3-Hexafluoropropan-2-yl 4-(2-(2-acetyl-2,8-diazaspiro[4.5]decan-8-yl)-4-(trifluoromethyl)benzyl)piperazine-1-carboxylate] | < 100 |  |  | ≥ 75 | < 100 | > 1000
13 | CCN1CCC2(CCN(c3cc(C(F)(F)F)ccc3CN3CCN(C(=O)OC(C(F)(F)F)C(F)(F)F)CC3)CC2)C1 [Example 183, 1,1,1,3,3,3-Hexafluoropropan-2-yl 4-(2-(2-ethyl-2,8-diazaspiro[4.5]decan-8-yl)-4-(trifluoromethyl)benzyl)piperazine-1-carboxylate] | < 100 |  |  | ≤ 25 | < 100 | > 1000
14 | CS(=O)(=O)N1CCN(c2cccc(Cl)c2CN2CC3(CCN(C(=O)OC(C(F)(F)F)C(F)(F)F)CC3)C2)CC1 [Example 44, 1,1,1,3,3,3-Hexafluoropropan-2-yl 2-(2-chloro-6-(4-(methylsulfonyl)piperazin-1-yl)benzyl)-2,7-diazaspiro[3.5]nonane-7-carboxylate] |  |  |  | ≥ 75 | < 100 | < 100
15 | CS(=O)(=O)N1CC2(CCN(c3cc(Cl)ccc3CN3CCN(C(=O)OC(C(F)(F)F)C(F)(F)F)CC3)CC2)C1 [Example 212, 1,1,1,3,3,3-Hexafluoropropan-2-yl 4-(4-chloro-2-(2-(methylsulfonyl)-2,7-diazaspiro[3.5]nonan-7-yl)benzyl)piperazine-1-carboxylate] |  |  |  | ≥ 75 | < 100 | > 1000
